Measurements published in ChEMBL document CHEMBL1130522, “Orevactaene,1 a novel binding inhibitor of HIV-1 rev protein to Rev response element (RRE) from Epicoccum nigrum WC47880” (Bioorg Med Chem Lett, 1997).

Columns and labels:
M109 = assay: The compound was tested for its cytotoxicity on the murine tumor cell line M109; type: functional, cell-based; conditions: Mus musculus
[1] = Inhibitory activity towards HIV-I regulatory protein Rev and its viral RNA-binding site, Rev response element (RRE) binding

CCC(C)CC(C)/C=C(/C=C(C)/C=C/C=C/C=C/C=C/C=C/c1cc2c(c(=O)o1)[C@H](O)[C@@H](O)[C@H](C(O)C(O)CO)O2)C(=O)O (some centres not stated)
IC50 (M109): 82 µM
IC50 [1]: 3.6 µM
